{"source": "paper PMC6345779", "about": "“Hypoculoside, a sphingoid base-like compound from Acremonium disrupts the membrane integrity of yeast cells” (Scientific Reports, 2019)", "key": {"[1]": {"tested_on": "Staphylococcus aureus (ATCC 25923)", "experiment": "Antibacterial growth inhibition assay", "type": "cell-based", "details": "ATCC25923, Gram-positive, read-out: IC50 against Staphylococcus aureus", "protocol": "(§1) Effect of hypoculoside on the growth of three bacterial strains Staphylococcus aureus (ATCC 25923), Pseudomonas aeruginosa (ATCC 9027) and Klebsiella aerogenes (ATCC 13048) was assessed as previously described. Cytotoxicity of hypoculoside on the A549 human lung cell line and the pancreatic carcinoma cell lines MIA PaCa-2 and PANC-1 was determined as described before. A549 and MIA PaCa-2 were seeded at 1,500 cells per well, and PANC-1 cells were seeded at 2,500 cells per well in a 384-well microplate. Cells were treated with hypoculoside at various concentrations and incubated for 72 hours at 37 °C in the presence of 5% CO2. Cytotoxic effect of hypoculoside was measured using the PrestoBlue™ cell viability reagent (Life Technologies). Following incubation of the microplates with the dye for 2 hours, the fluorescence reading (Excitation/Emission: 560 nm/590 nm) was recorded using the Tecan Infinite M1000 Pro reader.\n(§2) Legends for Supplementary figures and tables\n(§3) Figure S1 Analysis of hypoculoside by MS/MS\n(§4) Collision-Induced dissociation (CID) MS/MS fragmentation spectra of hypoculoside (8) generated at energies of 10 eV, 20 eV and 40 eV are depicted in panels A, B and C […]\n(§5) Figure S2 Hypoculoside has antifungal, antibacterial and mammalian cytotoxic […]\n(§6) A. Logarithmically growing Candida albicans cells were exposed to hypoculoside and amphotericin B at the indicated concentrations in triplicates in a 96-well microplate. A picture of the microplate after 24 hours of incubation at 30 °C is […]\n(§7) B. Saccharomyces cerevisiae cultures in duplicate were treated with hypoculoside at the indicated concentrations in YPD medium at 30 °C for 24 hours. Growth of the yeast cultures as measured by OD600 nm is plotted against hypoculoside concentration. Yeast cells treated with either DMSO or 21 µM hypoculoside for 24 hours were then washed in YPD and plated at different dilutions on a YPD agar and incubated at 30 °C. The YPD agar plate was photographed after 2 […]\nC. […]"}, "[2]": {"tested_on": "Pseudomonas aeruginosa (ATCC 9027)", "experiment": "Antibacterial growth inhibition assay", "type": "cell-based", "details": "Gram-negative", "protocol": "as §1, §2, §3, §4, §5, §6, §7\nC. […]"}, "[3]": {"tested_on": "Klebsiella aerogenes (ATCC 13048)", "experiment": "Antibacterial growth inhibition assay", "type": "cell-based", "details": "Gram-negative", "protocol": "as §1, §2, §3, §4, §5, §6, §7\nC. […]"}, "Wild type yeast cells": {"tested_on": "Wild type yeast cells", "experiment": "FM 4-64FX fluorescence microscopy (endocytosis / membrane integrity)", "type": "cell-based, Saccharomyces cerevisiae", "details": "5.4 µM pre-treatment for 30 minutes", "protocol": "To test if hypoculoside affects endocytosis, we used a dye FM 4–64FX which is a fixable analog of the FM 4-64 membrane stain. We incubated logarithmically growing yeast cells with either DMSO or hypoculoside for 30 minutes and then washed the cells off the compound and resuspended them in fresh growth medium containing FM 4-64FX to visualize endocytosis and vacuolar structure. In DMSO pre-treated cells, FM 4-64FX first stained the plasma membrane (Fig. 8A) at t = 0 and stained the cytoplasmic structures after 30′ indicating its uptake by endocytosis (Fig. 8A).\nFigure 8 Hypoculoside but not hypoculine disrupts the membrane integrity of yeast cells. (A) Wild type yeast cells pre-treated with either DMSO or hypoculoside (5.4 μM) were exposed to FM 4-64FX. Uptake of FM 4-64FX after 0′, 30′ and 120′ was analyzed by fluorescence microscopy of fixed cells. […] They were then treated with propidium iodide (PI) and percentage of PI-staining cells was assayed by fluorescence microscopy. Representative images of cells visualized by bright field and fluorescence microscopy are shown along with quantification of PI-staining cells (N = 100 cells) in (C).\nLabelling of yeast cells with FM4-64FX (Invitrogen) was done as previously reported. […] The images were acquired using an inverted fluorescence microscope ZEISS LSM 5 LIVE (Carl Zeiss, Oberkochen, Germany)."}, "BY4743 cells": {"tested_on": "BY4743 cells", "experiment": "Propidium iodide (PI)-staining assay of plasma membrane integrity", "type": "cell-based, Saccharomyces cerevisiae", "details": "5.3 µM, after 2 hours", "protocol": "Figure 8 Hypoculoside but not hypoculine disrupts the membrane integrity of yeast cells. (A) Wild type yeast cells pre-treated with either DMSO or hypoculoside (5.4 μM) were exposed to FM 4-64FX. Uptake of FM 4-64FX after 0′, 30′ and 120′ was analyzed by fluorescence microscopy of fixed cells. (B) Yeast cells were incubated with either DMSO or hypoculoside or hypoculine at different concentrations (1.8, 3.5 and 5.3 µM) for 30′ and 2 hours. They were then treated with propidium iodide (PI) and percentage of PI-staining cells was assayed by fluorescence microscopy. Representative images of cells visualized by bright field and fluorescence microscopy are shown along with quantification of PI-staining cells (N = 100 cells) in (C).\nWe then tested whether hypoculoside causes membrane leakage using the membrane impermeant dye propidium iodide (PI). […] We then incubated the cells with PI and visualized its uptake by fluorescence microscopy. […]\nBY4743 cells (OD600 nm ≈ 1) were exposed to various concentrations of hypoculoside or hypoculine or DMSO in YPD for 30′ and 2 hours. […] PI uptake by cells was assayed by bright-field and fluorescence microscopy [Excitation/Emission (nm): 535/617] and the percentage of PI-staining cells (N ≥ 100) was calculated."}}, "data": [{"compound": "CC(N)C(O)CCCCCCCCCCCCCCCCCCC(O)C(C)OC1OC(CO)C(O)C(O)C1O", "note": "(centres unmarked) [hypoculoside, Hypoculoside]", "values": [{"measurement": "IC50", "setting": "[1]", "value": 11.7, "unit": "µM"}, {"measurement": "inhibitory activity against Pseudomonas aeruginosa", "setting": "[2]", "value": "not against Gram-negative bacteria"}, {"measurement": "inhibitory activity against Klebsiella aerogenes", "setting": "[3]", "value": "not against Gram-negative bacteria"}, {"measurement": "FM 4-64FX staining pattern of pre-treated cells", "setting": "Wild type yeast cells", "value": "stained the cytoplasmic contents even at t = 0"}, {"measurement": "cells that had internalized PI", "setting": "BY4743 cells", "value": "about 60%"}]}]}
